# Literature values as cited in US20050220825A1, “Molecular dispersions of drospirenone” (priority 2004, published 2005).
# Key:
# [1] = drospirenone in micronised form; background statement
# [2] = within 30 minutes, hydrochloric acid solution pH about 1.0
structure (smiles),measurement,setting,value
C[C@]12CCC(=O)C=C1[C@@H]1C[C@@H]1[C@H]1[C@@H]3[C@@H]4C[C@@H]4[C@@]4(CCC(=O)O4)[C@@]3(C)CC[C@@H]12 [drospirenone],drospirenone dissolved at 30 minutes after start of dissolution testing,[1],at least 70%
same,drospirenone degraded into its therapeutically inactive isomer,[2],~50%
